{"source": "patent US20040150788A1", "about": "“Antimicrobial lenses, processes to prepare them and methods of their use” (priority 2002, published 2004)", "key": {"[1]": {"conditions": "cited from earlier work; for Ksp in pure H2O at 25° C. / Ksp In pure H2O at 25° C.: CRC Handbook of Chemistry and Physics; for Ksp in pure H2O at 25° C.: 74th edition (Table 8); for Ksp In pure H2O at 25° C.: 74th edition (Table 4); for Ksp: silver salt, pure water at 25° C. (Table 1)"}, "[2]": {"test": "Solubility-product constant (Ksp) and molar solubility of metal salts in pure water at 25° C.", "conditions": "derived from Ksp (Table 1)"}}}
{"molecule": "Copper sulfide", "values": [{"measurement": "Ksp in pure H2O at 25° C.", "setting": "[1]", "value": "6.00 × 10^−37"}]}
{"molecule": "[Br][Ag]", "note": "[Silver bromide]", "values": [{"measurement": "Ksp In pure H2O at 25° C.", "setting": "[1]", "value": "5.35 × 10^−13"}]}
{"molecule": "[Cl][Ag]", "note": "[AgCl, silver chloride]", "values": [{"measurement": "Ksp", "setting": "[1]", "value": "1.77 × 10^−10"}]}
{"molecule": "O=S(=O)([O-])[O-].[Ag+].[Ag+]", "note": "[Silver sulfate]", "values": [{"measurement": "Ksp In pure H2O at 25° C.", "setting": "[1]", "value": "1.20 × 10^−5"}, {"measurement": "Ksp", "setting": "[1]", "value": "1.20 × 10^−5"}]}
{"molecule": "[Ag][I]", "note": "[Agl, silver iodide]", "values": [{"measurement": "Molar solubility, silver", "setting": "[2]", "value": 9.22, "unit": "nM"}, {"measurement": "Ksp", "setting": "[1]", "value": "8.51 × 10^−17"}]}
{"molecule": "[O]=[Zn]", "note": "[Zinc oxide]", "values": [{"measurement": "Ksp in pure H2O at 25° C.", "setting": "[1]", "value": "3.87 × 10^−10"}]}
